Tests used:
Raji = test: Cytotoxicity against human Raji cells after 72 hrs by Cell-Titer Glo assay; format: functional, cell-based
HEK293 = test: Cytotoxicity against HEK293 cells after 72 hrs by Cell-Titer Glo assay; format: cell-based; conditions: Homo sapiens, HEK293, 72 h
[1] = Cytotoxicity against human SEM cells after 72 hrs by Cell-Titer Glo assay; format: functional, cell-based
HepG2 = test: Cytotoxicity against human HepG2 cells after 72 hrs by Cell-Titer Glo assay; format: functional, cell-based; conditions: HepG2, 72 h
BJ = test: Cytotoxicity against human BJ cells after 72 hrs by Cell-Titer Glo assay; format: cell-based
[2] = Cytotoxicity against human NALM6 cells after 72 hrs by Cell-Titer Glo assay; format: functional, cell-based; conditions: NALM-6, 72 h
Jurkat = test: Cytotoxicity against human Jurkat cells after 72 hrs by Cell-Titer Glo assay; format: functional, cell-based

SMILES	EC50 (Raji) [µM]	EC50 (HEK293) [µM]	EC50 [1] [µM]	EC50 (HepG2) [µM]	EC50 (BJ) [µM]	EC50 [2] [µM]	EC50 (Jurkat) [µM]
C=C[C@@](C)(/C=C/c1ccc(Nc2ccc(C(F)(F)F)cc2)cc1)CCC=C(C)C	> 26	> 36.6	> 36.6	> 52.1	> 36.6	> 43.5	
C=C[C@@](C)(/C=C/c1ccc(OS(=O)(=O)C(F)(F)F)cc1)CCC=C(C)C	> 26	> 36.6	> 36.6	> 52.1	> 36.6	> 43.5	> 49
C=C[C@@](C)(/C=C/c1ccc(Nc2ccc(F)cc2)cc1)CCC=C(C)C	> 26	> 36.6	> 36.6	> 52.1	> 36.6	> 43.5	
C=C[C@@](C)(/C=C/c1ccc(-c2ccc(Cl)cc2)cc1)CCC=C(C)C	> 26	> 36.6	> 36.6	> 52.1	> 36.6	> 43.5	
CC(C)=CCC[C@@](C)(/C=C/c1ccc(C)cc1)/C=C/c1ccc(O)cc1	> 26	> 36.6	> 36.6	> 52.1	> 36.6	> 43.5	
CC(C)=CCC[C@@](C)(/C=C/c1ccccc1)/C=C/c1ccc(O)cc1	> 26	> 36.6	> 36.6	> 52.1	> 36.6	> 43.5	
C=C[C@@](C)(/C=C/c1ccc(Nc2ccc(OC)c(OC)c2)cc1)CCC=C(C)C	> 26	> 36.6	> 36.6	> 52.1	> 36.6	> 43.5	
C=C[C@@](C)(/C=C/c1ccc(Nc2ccc(F)c(F)c2)cc1)CCC=C(C)C	> 26	> 36.6	> 36.6	> 52.1	> 36.6	> 43.5	
C=C[C@@](C)(/C=C/c1ccc(Nc2ccc3c(c2)OCO3)cc1)CCC=C(C)C	> 26	> 36.6	> 36.6	> 52.1	> 36.6	> 43.5	
C=C[C@@](C)(/C=C/c1ccc(Nc2c(F)cc(F)cc2F)cc1)CCC=C(C)C	> 26	> 36.6	> 36.6	> 52.1	> 36.6	> 43.5	
C=C[C@@](C)(/C=C/c1ccc(Nc2ccc(OC(F)(F)F)cc2)cc1)CCC=C(C)C	> 26	> 36.6	> 36.6	> 52.1	> 36.6	> 43.5	
CC(C)=CCC[C@](C)(/C=C/c1ccc(O)cc1)/C=C/c1cccc(Cl)c1	> 26	> 36.6	> 36.6	> 52.1	> 36.6	> 43.5	
C=C[C@@](C)(/C=C/c1ccc(Nc2cc(F)c(F)c(F)c2)cc1)CCC=C(C)C	> 26	> 36.6	> 36.6	> 52.1	> 36.6	> 43.5	
C=C[C@@](C)(/C=C/c1ccc(-c2ccc(Cl)c(Cl)c2)cc1)CCC=C(C)C	> 26	> 36.6	> 36.6	> 52.1	> 36.6	> 43.5	
C=C[C@@](C)(/C=C/c1ccc(Nc2ccc(Cl)c(Cl)c2)cc1)CCC=C(C)C	> 26	> 36.6	> 36.6	> 52.1	> 36.6	> 43.5	
C=C[C@@](C)(/C=C/c1ccc(Nc2ccc(OC)cc2)cc1)CCC=C(C)C	> 26	> 36.6	> 36.6	> 52.1	> 36.6	> 43.5	

SMILES	EC50 (Raji) [µM]	EC50 (HEK293) [µM]	EC50 [1] [µM]	EC50 (HepG2) [µM]	EC50 (BJ) [µM]	EC50 [2] [µM]	EC50 (Jurkat) [µM]
C=C[C@@](C)(/C=C/c1ccc(Nc2ccc(Cl)c(F)c2)cc1)CCC=C(C)C	> 26	> 36.6	> 36.6	> 52.1	> 36.6	> 43.5	
C=C[C@@](C)(/C=C/c1ccc(Nc2cccc(OC(F)(F)F)c2)cc1)CCC=C(C)C	> 26	> 36.6	> 36.6	> 52.1	> 36.6	> 43.5	
C=C[C@@](C)(/C=C/c1ccc(Nc2ccc(OC)c(F)c2)cc1)CCC=C(C)C	> 26	> 36.6	> 36.6	> 52.1	> 36.6	> 43.5	
C=C[C@@](C)(/C=C/c1ccc(-c2cccc(F)c2)cc1)CCC=C(C)C	> 26	> 36.6	> 36.6	> 52.1	> 36.6	> 43.5	
C=C[C@@](C)(/C=C/c1ccc(-c2ccccc2)cc1)CCC=C(C)C	> 26	> 36.6	> 36.6	> 52.1	> 36.6	> 43.5	
C=C[C@@](C)(/C=C/c1ccc(-c2ccc(F)cc2)cc1)CCC=C(C)C	> 26	> 36.6	> 36.6	> 52.1	> 36.6	> 43.5	
C=C[C@@](C)(/C=C/c1ccc(Nc2ccccc2)cc1)CCC=C(C)C	> 26	> 36.6	> 36.6	> 52.1	> 36.6	> 43.5	
C=C[C@@](C)(/C=C/c1ccc(Nc2ccc(Cl)cc2)cc1)CCC=C(C)C	> 26	> 36.6	> 36.6	> 52.1	> 36.6	> 43.5	
C=C[C@@](C)(/C=C/c1ccc(Nc2cc(C(F)(F)F)cc(C(F)(F)F)c2)cc1)CCC=C(C)C	> 26	> 36.6	> 36.6	> 52.1	> 36.6	> 43.5	
C=C[C@@](C)(/C=C/c1ccc(Nc2cc(F)c(F)cc2F)cc1)CCC=C(C)C	> 26	> 36.6	> 36.6	> 52.1	> 36.6	> 43.5	
C=C[C@@](C)(/C=C/c1ccc(Nc2cc(F)cc(F)c2)cc1)CCC=C(C)C	> 26	> 36.6	> 36.6	> 52.1	> 36.6	> 43.5	
C=C[C@@](C)(/C=C/c1ccc(-c2c(F)c(F)c(F)c(F)c2F)cc1)CCC=C(C)C	> 26	> 36.6	> 36.6	> 52.1	> 36.6	> 43.5	
C=C[C@@](C)(/C=C/c1ccc(-c2cccc(Br)c2)cc1)CCC=C(C)C	> 26	> 36.6	> 36.6	> 52.1	> 36.6	> 43.5	
CC(C)=CCC[C@](C)(/C=C/c1ccc(O)cc1)/C=C/c1cccc(F)c1	> 26	> 36.6	> 36.6	> 52.1	> 36.6	> 43.5	
C=C[C@@](C)(/C=C/c1ccc(Nc2cccc(C(F)(F)F)c2)cc1)CCC=C(C)C	> 26	> 36.6	> 36.6	> 52.1	> 36.6	> 43.5	
CC(C)=CCC[C@](C)(/C=C/c1ccc(O)cc1)/C=C/c1ccc(C#N)cc1	> 26	> 36.6	> 36.6	> 52.1	> 36.6	> 43.5	

Source: ChEMBL document CHEMBL3779792, “Anti-proliferative evaluation of monoterpene derivatives against leukemia” (Eur J Med Chem, 2016)
